Experimental data: PubChem BioAssay AID1963872 (Molecular Pharmacology Branch, DTP, NCI, 2024)

System: KRAS patient-derived spheroids with HUVEC/MSC, viability
Assay: Anticancer human tumor 519858-162-T-J1-PDC patient-derived colon adenocarcinoma cell line growth inhibition [KRAS2]
Conditions: for IC50: curve of first compound; for viability, T/C: stronger effect = lower value; active = viability on the fitted dose curve at most 10% of control; inactive = the rest
How it was run: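 KRAS-mutant tumor cells were grown as spheroids with HUVEC endothelial cells and human MSCs as stroma. Targeted agents were tested alone and with KRAS pathway inhibitors. Doses started at or near clinical Cmax, or 10 microM, descending half-log.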

[1] = second compound 0.1 µM, first compound 0.0316 µM
[2] = second compound 0.1 µM, first compound 0.1 µM
[3] = second compound 0.1 µM, first compound 0.316 µM
[4] = second compound 0.1 µM, first compound 1 µM
[5] = second compound 0.1 µM, first compound 3.16 µM
[6] = second compound 0.1 µM, first compound 10 µM
[7] = second compound 0.316 µM, first compound 0.0316 µM
[8] = second compound 0.316 µM, first compound 0.1 µM
[9] = second compound 0.316 µM, first compound 0.316 µM
[10] = second compound 0.316 µM, first compound 1 µM
[11] = second compound 0.316 µM, first compound 3.16 µM
[12] = second compound 0.316 µM, first compound 10 µM
[13] = second compound 1 µM, first compound 0.0316 µM
[14] = second compound 1 µM, first compound 0.1 µM
[15] = second compound 1 µM, first compound 0.316 µM
[16] = second compound 1 µM, first compound 1 µM
[17] = second compound 1 µM, first compound 3.16 µM
[18] = second compound 1 µM, first compound 10 µM
[19] = second compound 3.16 µM, first compound 0.0316 µM
[20] = second compound 3.16 µM, first compound 0.1 µM
[21] = second compound 3.16 µM, first compound 0.316 µM
[22] = second compound 3.16 µM, first compound 1 µM
[23] = second compound 3.16 µM, first compound 3.16 µM
[24] = second compound 3.16 µM, first compound 10 µM
[25] = second compound 10 µM, first compound 0.0316 µM
[26] = second compound 10 µM, first compound 0.1 µM
[27] = second compound 10 µM, first compound 0.316 µM
[28] = second compound 10 µM, first compound 1 µM
[29] = second compound 10 µM, first compound 3.16 µM
[30] = second compound 10 µM, first compound 10 µM
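Note: compound exposure lasted seven days before readout.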
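Throughout, for viability, T/C: 100% = DMSO vehicle control viability.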

CC(C)NCC(C(=O)N1CCN(c2ncnc3c2C(C)CC3O)CC1)c1ccc(Cl)cc1 (stereo not given) + CNCc1ccccc1-c1csc(C(C)Nc2nc(C)nc3cc(OC)c(OC)cc23)c1
> 10000 nM: IC50 (second compound 0.1 µM) | IC50 (second compound 0.316 µM) | IC50 (second compound 1 µM)
inactive: viability, T/C [1] 88.2% | viability, T/C [2] 81.7% | viability, T/C [3] 94.9% | viability, T/C [4] 93.7% | viability, T/C [5] 89.2% | viability, T/C [6] 88% | viability, T/C [7] 88.5% | viability, T/C [8] 91.6% | viability, T/C [9] 76.3% | viability, T/C [10] 88.1% | viability, T/C [11] 92.5% | viability, T/C [12] 93.1% | viability, T/C [13] 81.7% | viability, T/C [14] 76.2% | viability, T/C [15] 71.1% | viability, T/C [16] 73% | viability, T/C [17] 85.2% | viability, T/C [18] 79.9% | viability, T/C [19] 42.8% | viability, T/C [20] 59.8% | viability, T/C [21] 60% | viability, T/C [22] 58.3% | viability, T/C [23] 47.7% | viability, T/C [24] 43.8%
active: viability, T/C [25] 0.36% | viability, T/C [26] 0.39% | viability, T/C [27] 0.34% | viability, T/C [28] 0.3% | viability, T/C [29] 0.82% | viability, T/C [30] 0.78%
3880 nM: IC50 (second compound 3.16 µM)
< 31.6 nM: IC50 (second compound 10 µM)

CC(C)n1nc(-c2ccc3oc(N)nc3c2)c2c(N)ncnc21 + CNCc1ccccc1-c1csc(C(C)Nc2nc(C)nc3cc(OC)c(OC)cc23)c1
5.41 nM: IC50 (second compound 3.16 µM)
< 0.316 nM: IC50 (second compound 10 µM)
active: viability, T/C (second compound 10 µM, first compound 0.000316 µM) 0.52% | viability, T/C (second compound 10 µM, first compound 0.001 µM) 0.58% | viability, T/C (second compound 10 µM, first compound 0.00316 µM) 0.46% | viability, T/C (second compound 10 µM, first compound 0.01 µM) 0.32% | viability, T/C [25] 0.36% | viability, T/C [26] 0.73%
inactive: viability, T/C (second compound 0.1 µM, first compound 0.000316 µM) 80.2% | viability, T/C (second compound 0.1 µM, first compound 0.001 µM) 70.6% | viability, T/C (second compound 0.1 µM, first compound 0.00316 µM) 77.7% | viability, T/C (second compound 0.1 µM, first compound 0.01 µM) 72.5% | viability, T/C [1] 67% | viability, T/C [2] 53.5% | viability, T/C (second compound 0.316 µM, first compound 0.000316 µM) 76.5% | viability, T/C (second compound 0.316 µM, first compound 0.001 µM) 68.5% | viability, T/C (second compound 0.316 µM, first compound 0.00316 µM) 69.5% | viability, T/C (second compound 0.316 µM, first compound 0.01 µM) 83.2% | viability, T/C [7] 66.8% | viability, T/C [8] 62.5% | viability, T/C (second compound 1 µM, first compound 0.000316 µM) 91.9% | viability, T/C (second compound 1 µM, first compound 0.001 µM) 69.1% | viability, T/C (second compound 1 µM, first compound 0.00316 µM) 78.2% | viability, T/C (second compound 1 µM, first compound 0.01 µM) 42.7% | viability, T/C [13] 73.1% | viability, T/C [14] 86.3% | viability, T/C (second compound 3.16 µM, first compound 0.000316 µM) 68% | viability, T/C (second compound 3.16 µM, first compound 0.001 µM) 65% | viability, T/C (second compound 3.16 µM, first compound 0.00316 µM) 55.1% | viability, T/C (second compound 3.16 µM, first compound 0.01 µM) 39.8% | viability, T/C [19] 49.6% | viability, T/C [20] 43.1%
> 100 nM: IC50 (second compound 0.1 µM) | IC50 (second compound 0.316 µM) | IC50 (second compound 1 µM)

CC1(C)CCC(CN2CCN(c3ccc(C(=O)NS(=O)(=O)c4ccc(NCC5CCOCC5)c([N+](=O)[O-])c4)c(Oc4cnc5[nH]ccc5c4)c3)CC2)=C(c2ccc(Cl)cc2)C1 + CNCc1ccccc1-c1csc(C(C)Nc2nc(C)nc3cc(OC)c(OC)cc23)c1
< 31.6 nM: IC50 (second compound 10 µM)
31.6 nM: IC50 (second compound 3.16 µM)
2870 nM: IC50 (second compound 1 µM)
active: viability, T/C [25] 0.32% | viability, T/C [26] 0.34% | viability, T/C [27] 0.37% | viability, T/C [28] 0.27% | viability, T/C [29] 0.28% | viability, T/C [30] 0.35%
inactive: viability, T/C [1] 69.5% | viability, T/C [2] 86.8% | viability, T/C [3] 92.7% | viability, T/C [4] 68% | viability, T/C [5] 69.9% | viability, T/C [6] 60.4% | viability, T/C [7] 67.5% | viability, T/C [8] 78.4% | viability, T/C [9] 78.4% | viability, T/C [10] 80.8% | viability, T/C [11] 68.3% | viability, T/C [12] 60.1% | viability, T/C [13] 74% | viability, T/C [14] 78.9% | viability, T/C [15] 84.5% | viability, T/C [16] 101% | viability, T/C [17] 46.8% | viability, T/C [18] 27.6% | viability, T/C [19] 38.8% | viability, T/C [20] 45.8% | viability, T/C [21] 48.2% | viability, T/C [22] 67% | viability, T/C [23] 41.7% | viability, T/C [24] 15.5%
> 10000 nM: IC50 (second compound 0.1 µM) | IC50 (second compound 0.316 µM)
